{"source": "ChEMBL document CHEMBL1156608", "about": "“Synthesis of stable and selective inhibitors of human galectins-1 and -3” (Bioorg Med Chem, 2008)", "key": {"Galectin-3 [1]": {"biological_target": "T1, Galectin-3 (Homo sapiens, UniProt P17931)", "T1 sequence (P17931 whole entry)": "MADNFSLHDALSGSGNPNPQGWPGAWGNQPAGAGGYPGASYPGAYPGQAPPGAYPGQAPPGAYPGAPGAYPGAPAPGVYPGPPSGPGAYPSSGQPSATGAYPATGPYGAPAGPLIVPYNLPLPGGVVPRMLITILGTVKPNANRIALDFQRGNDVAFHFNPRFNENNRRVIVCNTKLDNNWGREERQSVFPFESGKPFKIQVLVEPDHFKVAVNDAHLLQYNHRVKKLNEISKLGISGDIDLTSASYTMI", "assay": "Binding affinity to galectin 3"}, "Galectin-1 [2]": {"biological_target": "T2, Galectin-1 (Homo sapiens, UniProt P09382)", "T2 sequence (P09382 whole entry)": "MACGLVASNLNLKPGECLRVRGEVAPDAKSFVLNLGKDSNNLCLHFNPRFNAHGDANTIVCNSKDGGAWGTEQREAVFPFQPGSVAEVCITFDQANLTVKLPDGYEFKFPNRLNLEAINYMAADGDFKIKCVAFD", "assay": "Inhibition of recombinant galectin 1 in human O type red blood cells by hemagglutinination assay relative to galactose"}, "Galectin-3 [3]": {"biological_target": "T1, Galectin-3", "assay": "Inhibition of recombinant galectin 3 in human O type red blood cells by hemagglutinination assay relative to galactose"}, "Galectin-1 [4]": {"biological_target": "T2, Galectin-1", "assay": "Inhibition of recombinant galectin 1 in human O type red blood cells by hemagglutinination assay relative to lactose"}, "Galectin-3 [5]": {"biological_target": "T1, Galectin-3", "assay": "Inhibition of galectin 3"}, "Galectin-1 [6]": {"biological_target": "T2, Galectin-1", "assay": "Binding affinity to galectin 1"}, "Galectin-3 [7]": {"biological_target": "T1, Galectin-3", "assay": "Inhibition of recombinant galectin 3 in human O type red blood cells by hemagglutinination assay relative to lactose"}}, "data": [{"compound": "O=C(N[C@@H]1[C@H](O)[C@H](CO)O[C@H](S[C@@H]2O[C@H](CO)[C@H](O)[C@H](NC(=O)c3ccc([N+](=O)[O-])cc3)[C@H]2O)[C@H]1O)c1ccc([N+](=O)[O-])cc1", "values": [{"measurement": "Kd", "setting": "Galectin-3 [1]", "value": 0.033, "unit": "µM"}]}, {"compound": "C#CCS[C@@H]1O[C@H](CO)[C@@H](O[C@@H]2O[C@H](CO)[C@H](O)[C@H](O)[C@H]2O)[C@H](O)[C@H]1O", "values": [{"measurement": "Activity", "setting": "Galectin-1 [2]", "value": 1.3}, {"measurement": "Activity", "setting": "Galectin-3 [3]", "value": 2.6}]}, {"compound": "CO[C@@H]1O[C@H](CO)[C@@H](O[C@@H]2O[C@H](CO)[C@H](O)[C@H](O)[C@H]2O)[C@H](O)[C@H]1NC(C)=O", "values": [{"measurement": "Activity", "setting": "Galectin-3 [1]", "value": 67, "unit": "µM"}]}, {"compound": "OC[C@@H]1O[C@H](SCC#CC#CCS[C@@H]2O[C@H](CO)[C@H](O)[C@H](O)[C@H]2O)[C@@H](O)[C@@H](O)[C@@H]1O", "values": [{"measurement": "Activity", "setting": "Galectin-1 [4]", "value": 5}, {"measurement": "Activity", "setting": "Galectin-1 [2]", "value": 10}, {"measurement": "Activity", "setting": "Galectin-3 [3]", "value": "< 10"}]}, {"compound": "OC[C@@H]1O[C@H](SCC#Cc2ccc(C#CCS[C@@H]3O[C@H](CO)C(O)[C@H](O)[C@H]3O)cc2)[C@@H](O)[C@H](O)[C@@H]1O", "note": "(single isomer, unassigned)", "values": [{"measurement": "Activity", "setting": "Galectin-1 [4]", "value": 10}, {"measurement": "Activity", "setting": "Galectin-1 [2]", "value": 20}, {"measurement": "Activity", "setting": "Galectin-3 [3]", "value": "< 10"}]}, {"compound": "C#CCS[C@@H]1O[C@H](CO)[C@H](O)[C@H](O)[C@H]1O", "values": [{"measurement": "Activity", "setting": "Galectin-1 [2]", "value": "< 10"}, {"measurement": "Activity", "setting": "Galectin-3 [3]", "value": 20}]}, {"compound": "OC[C@@H]1O[C@H](O[C@@H]2[C@@H](O)[C@H](O)[C@@H](OCCCCCCO[C@@H]3O[C@H](CO)[C@@H](O[C@@H]4O[C@H](CO)[C@H](O)[C@H](O)[C@H]4O)[C@H](O)[C@H]3O)O[C@H]2CO)[C@@H](O)[C@H](O)[C@@H]1O", "values": [{"measurement": "IC50", "setting": "Galectin-3 [5]", "value": 163, "unit": "µM"}]}, {"compound": "COC(=O)Cn1cc(C[C@@H]2O[C@H](CO)[C@H](O)[C@H](O)[C@H]2O)nn1", "note": "[TRIAZOLYL GALACTOSIDE]", "values": [{"measurement": "Kd", "setting": "Galectin-1 [6]", "value": 5000, "unit": "µM"}]}, {"compound": "CO[C@@H]1O[C@H](CO)[C@@H](O[C@@H]2O[C@H](CO)[C@H](O)[C@H](O)[C@H]2O)[C@H](O)[C@H]1O", "values": [{"measurement": "Activity", "setting": "Galectin-3 [1]", "value": 220, "unit": "µM"}]}, {"compound": "COC(=O)/C=C(\\C[C@@H]1O[C@H](CO)[C@H](O)[C@H](O)[C@H]1O)c1ccccc1", "values": [{"measurement": "Activity", "setting": "Galectin-1 [2]", "value": 160}, {"measurement": "Activity", "setting": "Galectin-3 [3]", "value": "< 10"}]}, {"compound": "OC[C@@H]1O[C@H](O[C@@H]2[C@@H](O)[C@H](O)[C@@H](n3cc(CS[C@@H]4O[C@H](CO)[C@H](O)[C@H](O)[C@H]4O)nn3)O[C@H]2CO)[C@@H](O)[C@H](O)[C@@H]1O", "values": [{"measurement": "Activity", "setting": "Galectin-1 [4]", "value": 1.3}, {"measurement": "Activity", "setting": "Galectin-1 [2]", "value": 2.6}, {"measurement": "Activity", "setting": "Galectin-3 [3]", "value": 1.3}, {"measurement": "Activity", "setting": "Galectin-3 [7]", "value": 0.7}]}, {"compound": "COC(=O)/C=C/C[C@@H]1O[C@H](CO)[C@H](O)[C@H](O)[C@H]1O", "values": [{"measurement": "Activity", "setting": "Galectin-1 [2]", "value": 10}, {"measurement": "Activity", "setting": "Galectin-3 [3]", "value": 10}]}, {"compound": "OC[C@H]1O[C@@H](C/C=C/c2cccc(/C=C/C[C@@H]3O[C@H](CO)[C@H](O)[C@H](O)[C@H]3O)c2)[C@H](O)[C@@H](O)[C@H]1O", "values": [{"measurement": "Activity", "setting": "Galectin-1 [4]", "value": 5}, {"measurement": "Activity", "setting": "Galectin-1 [2]", "value": 10}, {"measurement": "Activity", "setting": "Galectin-3 [3]", "value": "< 10"}]}, {"compound": "OC[C@@H]1O[C@H](n2cc(CS[C@@H]3O[C@H](CO)[C@H](O)[C@H](O)[C@H]3O)nn2)[C@@H](O)[C@H](O)[C@@H]1O", "values": [{"measurement": "Activity", "setting": "Galectin-1 [2]", "value": "< 10"}, {"measurement": "Activity", "setting": "Galectin-3 [3]", "value": 20}, {"measurement": "Activity", "setting": "Galectin-3 [7]", "value": 10}]}, {"compound": "OC[C@@H]1O[C@H](O[C@@H]2[C@@H](O)[C@H](O)[C@@H](SCC#CC#CCS[C@@H]3O[C@H](CO)[C@@H](O[C@@H]4O[C@H](CO)[C@H](O)[C@H](O)[C@H]4O)[C@H](O)[C@H]3O)O[C@H]2CO)[C@@H](O)[C@H](O)[C@@H]1O", "values": [{"measurement": "Activity", "setting": "Galectin-1 [4]", "value": 1.3}, {"measurement": "Activity", "setting": "Galectin-1 [2]", "value": 2.6}, {"measurement": "Activity", "setting": "Galectin-3 [3]", "value": 5}, {"measurement": "Activity", "setting": "Galectin-3 [7]", "value": 2.5}]}, {"compound": "O=C[C@H](O)[C@@H](O)[C@@H](O)[C@H](O)CO", "values": [{"measurement": "Activity", "setting": "Galectin-1 [2]", "value": 1}, {"measurement": "Activity", "setting": "Galectin-3 [3]", "value": 1}]}, {"compound": "CO[C@@H]1O[C@H](CO)[C@@H](O[C@@H]2O[C@H](CO)[C@H](O)[C@H](NC(=O)c3cc4ccccc4cc3C(=O)O)[C@H]2O)[C@H](O)[C@H]1NC(C)=O", "values": [{"measurement": "Kd", "setting": "Galectin-3 [1]", "value": 0.3, "unit": "µM"}]}, {"compound": "OC[C@@H]1O[C@H](O[C@@H]2[C@@H](O)[C@H](O)[C@@H](n3cc(CS[C@@H]4O[C@H](CO)[C@@H](O[C@@H]5O[C@H](CO)[C@H](O)[C@H](O)[C@H]5O)[C@H](O)[C@H]4O)nn3)O[C@H]2CO)[C@@H](O)[C@H](O)[C@@H]1O", "values": [{"measurement": "Activity", "setting": "Galectin-1 [4]", "value": 1.3}, {"measurement": "Activity", "setting": "Galectin-1 [2]", "value": 2.6}, {"measurement": "Activity", "setting": "Galectin-3 [3]", "value": 5}, {"measurement": "Activity", "setting": "Galectin-3 [7]", "value": 2.5}]}, {"compound": "OC[C@H]1O[C@@H](C/C=C/c2ccccc2)[C@H](O)[C@@H](O)[C@H]1O", "values": [{"measurement": "Activity", "setting": "Galectin-1 [2]", "value": "< 10"}, {"measurement": "Activity", "setting": "Galectin-3 [3]", "value": "< 10"}]}, {"compound": "C/C=C/[C@@H]1O[C@H](CO)[C@H](O)[C@H](O)[C@H]1O", "values": [{"measurement": "Activity", "setting": "Galectin-1 [2]", "value": "< 10"}, {"measurement": "Activity", "setting": "Galectin-3 [3]", "value": "< 10"}]}, {"compound": "C=C(C[C@@H]1O[C@H](CO)[C@H](O)[C@H](O)[C@H]1O)c1ccc(OC)cc1", "values": [{"measurement": "Activity", "setting": "Galectin-1 [2]", "value": "< 10"}, {"measurement": "Activity", "setting": "Galectin-3 [3]", "value": 10}]}, {"compound": "C=C(C[C@@H]1O[C@H](CO)[C@H](O)[C@H](O)[C@H]1O)c1cccc([N+](=O)[O-])c1", "values": [{"measurement": "Activity", "setting": "Galectin-1 [2]", "value": 10}, {"measurement": "Activity", "setting": "Galectin-3 [3]", "value": "< 10"}]}, {"compound": "LACTOSE, ANHYDROUS", "values": [{"measurement": "Activity", "setting": "Galectin-1 [2]", "value": 1}, {"measurement": "Activity", "setting": "Galectin-3 [3]", "value": 1}]}, {"compound": "CC(=O)C[C@@H]1O[C@H](CO)[C@H](O)[C@H](O)[C@H]1O", "values": [{"measurement": "Activity", "setting": "Galectin-1 [2]", "value": "< 10"}, {"measurement": "Activity", "setting": "Galectin-3 [3]", "value": 10}]}, {"compound": "OC[C@@H]1O[C@H](n2cc(CS[C@@H]3O[C@H](CO)[C@@H](O[C@@H]4O[C@H](CO)[C@H](O)[C@H](O)[C@H]4O)[C@H](O)[C@H]3O)nn2)[C@@H](O)[C@H](O)[C@@H]1O", "values": [{"measurement": "Activity", "setting": "Galectin-1 [4]", "value": 0.7}, {"measurement": "Activity", "setting": "Galectin-1 [2]", "value": 1.3}, {"measurement": "Activity", "setting": "Galectin-3 [3]", "value": 2.6}, {"measurement": "Activity", "setting": "Galectin-3 [7]", "value": 1.3}]}, {"compound": "O=S(=O)(c1ccc2ccccc2c1)[C@@H]1O[C@H](CO)[C@@H](O[C@@H]2O[C@H](CO)[C@H](O)[C@H](O)[C@H]2O)[C@H](O)[C@H]1O", "values": [{"measurement": "Kd", "setting": "Galectin-1 [6]", "value": 40, "unit": "µM"}, {"measurement": "Kd", "setting": "Galectin-3 [1]", "value": 313, "unit": "µM"}]}]}
